# Measurements: US10654835B2, “Compounds and methods for inhibiting JAK” (Dizal (Jiangsu) Pharmaceutical Co., Ltd., priority 2015, dated 2020)
# Entries after “also recorded” stand apart in the source; their conditions may differ.
# Tests used:
# [1] = system: LG1049 non-small cell lung cancer PDX tumor xenografts; assay: LG1049 xenograft PDX model, antitumor activity (Example 72); format: in vivo, mice; conditions: for tumor regrowth when treatment was stopped after 28 days: osimertinib single agent or osimertinib + Example 32
# Method: Summary: LG1049 non-small cell lung cancer PDX tumor xenografts were grown subcutaneously in female NSG mice. […] Tumor volume was measured twice a week.
# [2] = LG1049 xenograft PDX model, body weight (Example 72); format: in vivo, mice
# Text: Materials and Methods: LG1049 tumor fragments were implanted subcutaneously in female NSG mice (JAX Stock No. 005557). Once tumor volumes reached ˜125-275 mm^3, mice were randomized into 5 groups (10 mice/group, average tumor volume 189 mm^3, range 138-253 mm^3).
# pEGFR = pEGFR knockdown in LG1049 tumors (Example 72); format: in vivo, mice; conditions: osimertinib 25 mg/kg QD, 5 days of treatment, 4H after the final dose
# [3] = system: NCI-H1975 tumor xenografts; assay: H1975 xenograft model, antitumor activity (Example 69); format: in vivo, mice
# Method: (§1) Tumor volume was measured twice a week.
# Materials and Methods: NCI-H1975 cells (a human NSCLC cell line with L858R and T790M mutations in the EGFR gene) tumor cells were implanted subcutaneously in female NCr nude mice (Taconic Laboratories), 3×10^6 cells/mouse.
# pSTAT3 (Y705) [4] = assay: pSTAT3 knockdown in NCI-H1975 tumors (Example 69); format: in vivo, mice; conditions: Example 32 12.5, 25, 50 mg/kg BID, after one day of treatment
# Method: as §1
# (§2) Materials and Methods: NCI-H1975 cells (a human NSCLC cell line with L858R and T790M mutations in the EGFR gene) tumor cells were implanted subcutaneously in female NCr nude mice (Taconic Laboratories), 3×10^6 cells/mouse. […] Drug levels in plasma were measured by LC/MS, using a Linear Ion Trap Quadrupole LC/MS/MS Mass Spectrometer (QTRAP 5500 model 1024945-BB, AB Sciex Instruments), with separation on a Waters Xbridge C18 column.
# [5] = Drug levels in plasma, H1975 xenograft mice (Example 69); format: in vivo; conditions: increasing dose of Example 32, one day of treatment
# Method: as §2
# PC-9 tumor xenografts = assay: PC-9 xenograft model, antitumor activity (Example 70); format: in vivo, mice
# Method: as §1
# pSTAT3 (Y705) [6] = assay: pSTAT3 knockdown in PC-9 tumors (Example 70); format: in vivo, mice; conditions: gefitinib + Example 32 12.5 and 50 mg/kg BID; 2, 8 and 24 hours after the AM dose, last day
# Method: as §1
# [7] = system: NCI-H1650 tumor xenografts; assay: H1650 xenograft model, antitumor activity (Example 71); format: in vivo, mice
# Method: as §1
# (§3) Twenty-three days after cell implantation, the mice were randomized into 6 groups (9 mice/group, average tumor volume 257 mm^3, range 205-303 mm^3). […] Drug levels in plasma were measured by LC/MS, using a Linear Ion Trap Quadrupole LC/MS/MS Mass Spectrometer (QTRAP 5500 model 1024945-BB, AB Sciex Instruments), with separation on a Waters Xbridge C18 column.
# pSTAT3 = pSTAT3 knockdown in NCI-H1650 tumors (Example 71); format: in vivo, mice; conditions: Example 32 as single agent and in combination with gefitinib, after one day of treatment
# Method: as §1, §3
# pSTAT3 (Y705) [8] = assay: pSTAT3 knockdown in LG1049 tumors (Example 72); format: in vivo, mice; conditions: Example 32 25 mg/kg BID, 5 days of treatment, 4H after the final dose
# Method: as §1
# [9] = system: NCI-H1975 tumor xenografts; assay: H1975 xenograft model, intermittent Example 32 dosing schedules, antitumor activity (Example 73); format: in vivo, mice
# Method: as §1
# Materials and Methods: NCI-H1975 cells (a human NSCLC cell line with L858R and T790M mutations in the EGFR gene), were implanted subcutaneously in female NCr nude mice (Taconic Laboratories), 3×10^6 cells/mouse.
smiles,measurement,setting,value
"C=CC(=O)Nc1cc(Nc2nccc(-c3cn(C)c4ccccc34)n2)c(OC)cc1N(C)CCN(C)C [osimertinib, reference compound]","antitumor activity, single agent osimertinib","[1]; osimertinib 25 mg/kg QD oral, 28 days",tumor regression
same,tumor regrowth when treatment was stopped after 28 days,[1],tumors rapidly regrew
same,"weight loss, single agent","[2]; LG1049 tumor bearing NSG mice, weight loss ascribed to tumor growth",lack of significant weight loss
same,knockdown of pEGFR in tumors,pEGFR,robust knockdown
"COc1nn(C)cc1Nc1nccc(-c2c[nH]c3c(NC(=O)[C@@H](C)N4CCN(C)CC4)cccc23)n1 [Example 32, (2R)-N-(3-{2-[(3-methoxy-1-methyl-1H-pyrazol-4-yl)amino]pyrimidin-4-yl}-1H-indol-7-yl)-2-(4-methylpiperazin-1-yl)propanamide]","antitumor activity, single agent, relative to vehicle","[3]; Example 32 12.5, 25 or 50 mg/kg BID oral, 18 days",no significant antitumor activity; also recorded: only weak antitumor activity
same,dose dependence of the enhancement of antitumor activity,[3]; osimertinib 2.5 mg/kg QD + Example 32 12.5 mg/kg up to 50 mg/kg,increased with increasing dose of Example 32
same,antitumor activity of combination with osimertinib compared to osimertinib alone,"[3]; osimertinib 2.5 mg/kg QD + Example 32 12.5, 25 or 50 mg/kg BID oral, 18 days",enhanced the antitumor activity of osimertinib
same,pSTAT3 knockdown in tumors,pSTAT3 (Y705) [4],dose dependent increase in pSTAT3 knockdown
same,level of Example 32 in plasma,[5],increasing level of Example 32 in plasma
same,antitumor activity of combination with gefitinib compared to gefitinib,"PC-9 tumor xenografts; gefitinib 6.25 mg/kg QD + Example 32, oral, 21 days",enhanced the antitumor activity of gefitinib
same,activity of combination compared to single agent gefitinib,"PC-9 tumor xenografts; gefitinib + 12.5 mg/kg Example 32 daily, and + 50 mg/kg Example 32 2 days on/5 days off","greater activity than single agent gefitinib, but did not quite achieve statistical significance"
same,dose dependence of the enhancement of antitumor activity,PC-9 tumor xenografts; gefitinib + Example 32 from 12.5 mg/kg to 50 mg/kg,increased with increasing dose of Example 32
same,pSTAT3 knockdown in tumors,pSTAT3 (Y705) [6],dose dependent increase in the duration of pSTAT3 knockdown
same,"antitumor activity, single agent","[7]; Example 32 25 or 50 mg/kg BID oral, 21 days",only modest antitumor activity
same,antitumor activity of combination with gefitinib compared to single agent gefitinib,"[7]; gefitinib 6.25 mg/kg QD + Example 32 25 or 50 mg/kg BID, 21 days",enhanced the antitumor activity of gefitinib
same,dose dependence of the enhancement of antitumor activity,[7]; gefitinib + Example 32 from 25 mg/kg to 50 mg/kg,increased with increasing dose of Example 32
same,pSTAT3 knockdown in tumors,pSTAT3,Knockdown of pSTAT3 was observed
same,tumor regrowth when Example 32 treatment was continued after 28 days of combination,[1]; Example 32 25 mg/kg BID alone 3 days on/4 days off/wk after the combination,"tumors also regrew, but more slowly"
same,"antitumor activity, single agent Example 32, relative to vehicle","[1]; Example 32 25 mg/kg BID oral, 18 days",no significant antitumor activity; also recorded: no significant activity relative to vehicle control treatment
same,"tumor regression, combination with osimertinib compared to osimertinib alone","[1]; osimertinib 25 mg/kg QD + Example 32 25 mg/kg BID (7 days, then 3 days on/4 days off/wk), 28 days",enhanced the tumor regression induced by osimertinib
same,tumor regrowth when treatment was stopped after 28 days,[1],tumors rapidly regrew
same,"weight loss, single agent","[2]; mouse, in vivo",significant weight loss
same,knockdown of pSTAT3 in tumors,pSTAT3 (Y705) [8],robust knockdown
same,"antitumor activity, single agent, relative to vehicle","[9]; Example 32 50 mg/kg BID oral, 19 days",no significant activity relative to vehicle control treatment
same,dose dependence of the enhancement of antitumor activity,[9]; Example 32 50 mg/kg BID vs. 25 mg/kg BID with osimertinib,greater at the higher dose of Example 32
same,"statistical significance of the difference, combination vs. osimertinib alone",[9]; after 26 days of treatment,"statistically significant after 26 days of treatment at all schedules of Example 32, with the exception of the groups in which Example 32 was dosed only for the first 7 days"
same,enhancement of osimertinib activity by schedule intensity of Example 32 (rank order),[9]; osimertinib 2.5 mg/kg QD + Example 32,daily>4 on/3 off>7 on/7 off>2 on/5 off>just first 7 days
same,antitumor activity of combination with osimertinib compared to osimertinib alone,"[9]; osimertinib 2.5 mg/kg QD + Example 32, continuous and intermittent schedules",enhanced the antitumor activity of osimertinib
